Data published in US8546414B2, “Ion channel modulators and methods of use” (Vertex Pharmaceuticals Incorporated, priority 2004, dated 2013).

Columns and labels:
Type in all cases: cell-based
[1] = molecular target: T1, CaV2.2 (Homo sapiens, UniProt Q00975); experiment: VIPR optical membrane potential assay with electrical stimulation, CaV2.2; conditions: Table 9, CaV 2.2 receptors
T1 construct: expressed in transfected cells; host or cells: HEK293
In short: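 HEK293 cells stably expressing CaV2.2 stained with CC2-DMPE/DiSBAC2(3) voltage-sensitive dyes (10 μM final CC2-DMPE, 30 min, RT), then compound added and cells electrically stimulated for 3-5 s. Read-out: background-subtracted 460/580 nm emission ratio; response R=Rf/Ri (post- vs pre-stimulus ratio); antagonism seen as reduced response.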

[2] = molecular target: T2, NaV1.3 (Homo sapiens, UniProt Q9NY46); experiment: VIPR optical membrane potential assay with electrical stimulation, NaV1.3; conditions: Table 9, NaV 1.3 receptors
T2 construct: expressed in transfected cells; host or cells: HEK293
In short: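 HEK293 cells stably expressing NaV1.3, stained with CC2-DMPE (10 μM final) then DiSBAC2(3) with ABSC1, 30 min each at RT; compounds added with oxonol. Electrical stimulation for 3 s; 460/580 nm background-subtracted emission ratio Rf/Ri, normalised to tetracaine (positive) and untreated (negative) controls.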

[3] = molecular target: NaV1.8 (Homo sapiens, UniProt Q9Y5Y9); experiment: VIPR optical membrane potential assay, NaV1.8 (other subtypes in an analogous mode); conditions: Table 9, NaV 1.8 receptors
Method: Antagonist properties of test compounds were assessed as follows. Cells expressing the NaV of interest were placed into microtiter plates. After an incubation period, the cells were stained with fluorescent dyes sensitive to the transmembrane potential. The test compounds were added to the microtiter plate. The cells were stimulated with either chemical or electrical means to evoke a NaV dependent membrane potential change from unblocked channels, which was detected and measured with trans-membrane potential-sensitive dyes. Antagonists were detected as a decreased membrane potential response to the stimulus.
24 hours before the assay on VIPR, CHO cells endogenously expressing a NaV 1.2 type voltage-gated NaV are seeded in 96-well poly-lysine coated plates at 60,000 cells per well. […] Plates are incubated in the dark for 30 minutes at room temperature. • 4) While the cells are being stained with coumarin, a […] oxonol solution in BS#2 is prepared. […] As before, the residual volume should be 40 μL. • 6) Upon removing the bath, the cells are loaded with 80 μL of the DiSBAC2(3) solution, after which test compound, dissolved in DMSO, is added to achieve the desired test concentration to each well from the drug addition plate and mixed thoroughly. The volume in the well should be roughly 121 μL. The cells are then incubated for 20-30 minutes. • 7) Once the incubation is complete, the cells are ready to be assayed on VIPR® with a sodium addback protocol. 120 μL of Bath solution #1 is added to stimulate the NaV dependent depolarization. […] tetracaine was used as an antagonist positive control for block of the NaV channel. Analysis of VIPR® Data:
The following is an example of how NaV1.3 inhibition activity is measured using the optical membrane potential method#2. Other subtypes are performed in an analogous mode in a cell line expressing the NaV of interest.

T2 sequence (Q9NY46 whole entry): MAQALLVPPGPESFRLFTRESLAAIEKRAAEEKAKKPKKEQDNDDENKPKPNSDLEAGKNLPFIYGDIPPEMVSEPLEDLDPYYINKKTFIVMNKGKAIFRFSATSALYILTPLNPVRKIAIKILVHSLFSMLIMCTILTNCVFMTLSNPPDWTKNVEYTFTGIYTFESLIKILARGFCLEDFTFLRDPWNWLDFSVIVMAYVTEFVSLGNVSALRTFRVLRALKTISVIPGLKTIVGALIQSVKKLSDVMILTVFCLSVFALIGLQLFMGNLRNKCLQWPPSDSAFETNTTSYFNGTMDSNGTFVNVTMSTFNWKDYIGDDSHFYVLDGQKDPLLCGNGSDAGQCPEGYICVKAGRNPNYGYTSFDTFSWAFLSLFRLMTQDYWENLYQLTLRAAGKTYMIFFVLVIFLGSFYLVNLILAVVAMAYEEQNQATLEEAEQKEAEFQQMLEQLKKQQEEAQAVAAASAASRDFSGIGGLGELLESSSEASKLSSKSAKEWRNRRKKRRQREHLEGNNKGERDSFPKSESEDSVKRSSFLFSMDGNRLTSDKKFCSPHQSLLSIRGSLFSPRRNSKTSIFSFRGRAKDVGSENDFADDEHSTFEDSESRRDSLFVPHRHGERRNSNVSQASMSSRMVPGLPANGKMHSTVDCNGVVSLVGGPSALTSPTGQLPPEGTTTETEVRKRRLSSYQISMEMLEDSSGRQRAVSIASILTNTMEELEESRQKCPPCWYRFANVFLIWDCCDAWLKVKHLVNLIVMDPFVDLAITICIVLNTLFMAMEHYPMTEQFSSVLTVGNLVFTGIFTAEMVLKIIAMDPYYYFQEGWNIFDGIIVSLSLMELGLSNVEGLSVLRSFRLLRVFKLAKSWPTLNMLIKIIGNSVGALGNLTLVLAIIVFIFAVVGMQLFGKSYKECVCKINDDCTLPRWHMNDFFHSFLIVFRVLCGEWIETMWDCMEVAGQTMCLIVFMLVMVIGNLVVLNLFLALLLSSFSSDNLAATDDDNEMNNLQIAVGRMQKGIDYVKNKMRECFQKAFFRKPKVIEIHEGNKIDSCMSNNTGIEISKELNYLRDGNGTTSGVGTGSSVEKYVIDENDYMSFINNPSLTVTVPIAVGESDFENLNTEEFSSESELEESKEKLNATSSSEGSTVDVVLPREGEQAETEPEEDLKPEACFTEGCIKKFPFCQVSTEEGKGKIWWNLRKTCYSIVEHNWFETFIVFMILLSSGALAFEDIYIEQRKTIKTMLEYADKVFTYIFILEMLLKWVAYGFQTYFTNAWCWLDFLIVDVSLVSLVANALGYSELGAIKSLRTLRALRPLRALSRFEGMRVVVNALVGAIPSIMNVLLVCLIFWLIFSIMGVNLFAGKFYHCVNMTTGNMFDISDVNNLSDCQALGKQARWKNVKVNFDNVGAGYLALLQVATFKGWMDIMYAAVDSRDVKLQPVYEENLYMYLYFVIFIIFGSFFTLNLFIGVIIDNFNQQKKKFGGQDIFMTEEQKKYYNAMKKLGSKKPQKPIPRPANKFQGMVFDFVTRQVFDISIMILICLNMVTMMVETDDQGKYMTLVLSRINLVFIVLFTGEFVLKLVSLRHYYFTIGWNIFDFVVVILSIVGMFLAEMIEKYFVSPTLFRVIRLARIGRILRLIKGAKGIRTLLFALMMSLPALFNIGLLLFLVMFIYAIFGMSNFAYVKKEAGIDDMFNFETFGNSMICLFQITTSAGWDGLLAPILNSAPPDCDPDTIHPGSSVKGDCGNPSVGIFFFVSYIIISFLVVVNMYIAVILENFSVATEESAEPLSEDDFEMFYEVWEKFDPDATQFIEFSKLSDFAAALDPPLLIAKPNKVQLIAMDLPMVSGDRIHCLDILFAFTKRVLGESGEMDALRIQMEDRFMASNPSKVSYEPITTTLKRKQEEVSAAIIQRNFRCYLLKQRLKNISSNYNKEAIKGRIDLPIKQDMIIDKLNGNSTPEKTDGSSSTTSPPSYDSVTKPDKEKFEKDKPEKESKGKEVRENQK
NaV1.8, sequence (Q9Y5Y9 whole entry): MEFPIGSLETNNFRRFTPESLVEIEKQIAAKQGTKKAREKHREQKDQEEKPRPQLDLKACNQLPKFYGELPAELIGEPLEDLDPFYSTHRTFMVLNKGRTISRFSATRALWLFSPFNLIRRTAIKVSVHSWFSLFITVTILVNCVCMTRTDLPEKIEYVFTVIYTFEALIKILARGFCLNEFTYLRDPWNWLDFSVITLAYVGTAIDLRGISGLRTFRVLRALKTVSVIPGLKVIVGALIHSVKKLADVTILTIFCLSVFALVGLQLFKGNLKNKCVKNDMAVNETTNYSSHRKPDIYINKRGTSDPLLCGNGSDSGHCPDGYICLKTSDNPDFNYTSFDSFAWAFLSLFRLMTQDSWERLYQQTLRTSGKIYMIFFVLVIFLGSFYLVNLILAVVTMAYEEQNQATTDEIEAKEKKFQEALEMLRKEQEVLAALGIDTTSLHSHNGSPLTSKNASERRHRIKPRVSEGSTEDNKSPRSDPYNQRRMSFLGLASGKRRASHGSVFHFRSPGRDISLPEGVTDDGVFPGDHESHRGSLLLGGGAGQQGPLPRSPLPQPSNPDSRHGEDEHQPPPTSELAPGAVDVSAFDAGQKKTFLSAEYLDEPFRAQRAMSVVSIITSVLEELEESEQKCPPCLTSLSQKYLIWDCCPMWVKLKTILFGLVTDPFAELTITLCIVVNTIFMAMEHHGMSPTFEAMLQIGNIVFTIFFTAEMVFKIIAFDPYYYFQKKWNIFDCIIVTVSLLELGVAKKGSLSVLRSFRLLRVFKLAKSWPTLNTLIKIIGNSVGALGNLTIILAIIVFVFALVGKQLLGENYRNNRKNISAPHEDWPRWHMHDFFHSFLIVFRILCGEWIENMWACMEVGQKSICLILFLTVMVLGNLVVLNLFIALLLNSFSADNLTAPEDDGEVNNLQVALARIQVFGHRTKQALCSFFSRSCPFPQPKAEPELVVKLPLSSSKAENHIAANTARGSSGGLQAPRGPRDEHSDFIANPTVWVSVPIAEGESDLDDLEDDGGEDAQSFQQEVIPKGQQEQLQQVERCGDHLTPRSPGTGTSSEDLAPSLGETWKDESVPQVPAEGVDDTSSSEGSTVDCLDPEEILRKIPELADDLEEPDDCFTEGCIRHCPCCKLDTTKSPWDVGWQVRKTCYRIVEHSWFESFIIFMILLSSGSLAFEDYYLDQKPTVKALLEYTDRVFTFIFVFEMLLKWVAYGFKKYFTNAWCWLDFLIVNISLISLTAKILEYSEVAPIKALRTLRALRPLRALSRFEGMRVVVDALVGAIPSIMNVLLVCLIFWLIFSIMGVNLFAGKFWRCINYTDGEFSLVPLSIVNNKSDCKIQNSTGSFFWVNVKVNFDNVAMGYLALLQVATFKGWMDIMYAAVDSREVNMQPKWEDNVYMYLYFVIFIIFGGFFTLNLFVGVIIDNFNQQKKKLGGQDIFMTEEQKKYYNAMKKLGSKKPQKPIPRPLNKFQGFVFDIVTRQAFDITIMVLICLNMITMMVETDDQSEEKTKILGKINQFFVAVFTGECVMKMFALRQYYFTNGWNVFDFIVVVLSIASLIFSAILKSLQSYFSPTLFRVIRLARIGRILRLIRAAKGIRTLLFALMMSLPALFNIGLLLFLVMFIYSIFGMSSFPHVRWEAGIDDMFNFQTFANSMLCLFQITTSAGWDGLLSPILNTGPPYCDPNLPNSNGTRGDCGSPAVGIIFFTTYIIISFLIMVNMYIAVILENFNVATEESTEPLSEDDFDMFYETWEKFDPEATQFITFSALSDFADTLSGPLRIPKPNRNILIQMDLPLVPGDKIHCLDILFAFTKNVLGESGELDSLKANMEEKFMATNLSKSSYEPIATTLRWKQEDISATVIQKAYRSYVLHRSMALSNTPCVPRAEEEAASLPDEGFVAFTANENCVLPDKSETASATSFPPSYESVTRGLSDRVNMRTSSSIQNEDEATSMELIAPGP

| SMILES | IC50 [1] | IC50 [2] | IC50 [3] |
| --- | --- | --- | --- |
| COc1ccc(N(C(=O)c2cnc(N3CCC4CCCCC4C3)nc2-c2ccccc2F)C(C)C)cc1 (centres unmarked) [compound 12] | < 2 µM | > 10 µM | > 10 µM |
| COc1cccc(N(C(=O)c2c(C)nc(N3CCOCC3)nc2-c2ccccc2F)C(C)C)c1 [compound 21] | > 10 µM | > 10 µM | > 10 µM |
| CC(C)N(C(=O)c1cnc(N2CCN(C)CC2)nc1-c1ccccc1F)c1ccccc1 [compound 23] | > 10 µM | > 10 µM | > 10 µM |
| Cc1nc(N2CCOCC2)nc(-c2ccccc2F)c1C(=O)N(c1ccccc1)C(C)C [compound 25] | > 10 µM | > 10 µM | > 10 µM |
| CN(C)CCN(Cc1ccccc1)C(=O)c1cnc(N2CCOCC2)nc1-c1ccccc1F [compound 28] | > 10 µM | > 10 µM | > 10 µM |
| CCN(Cc1ccccc1)C(=O)c1cnc(NCCCOC)nc1-c1ccccc1F [compound 327] | > 10 µM | > 10 µM | – |
| COCCCNc1ncc(C(=O)NCC2CCCCC2)c(-c2cccc(C)c2)n1 [compound 330] | > 10 µM | > 10 µM | – |
| CCC(C)NC(=O)c1cnc(N(C)CCc2ccc(OC)c(OC)c2)nc1-c1ccc(C#N)cc1 (centres unmarked) [compound 331] | > 10 µM | > 10 µM | – |
| CCCCNC(=O)c1cnc(NCCCOC)nc1-c1cccc(C)c1 [compound 332] | > 10 µM | > 10 µM | – |
| CC1CC(C)CN(C(=O)c2cnc(N3CCOCC3)nc2-c2ccc(C#N)cc2)C1 (centres unmarked) [compound 333] | > 10 µM | > 10 µM | – |
| CCC(C)Nc1ncc(C(=O)N(C)CC)c(-c2ccc(C#N)cc2)n1 (centres unmarked) [compound 336] | > 10 µM | > 10 µM | – |
| CC1CCN(C(=O)c2cnc(N3CCOCC3)nc2-c2ccccc2F)CC1 [compound 337] | > 10 µM | > 10 µM | – |
| COCCCNC(=O)c1cnc(N2CCN(C(C)=O)CC2)nc1-c1cccc(C)c1 [compound 339] | > 10 µM | > 10 µM | – |
| CCN(Cc1ccccc1)C(=O)c1cnc(N2CCCC2)nc1-c1ccc(C#N)cc1 [compound 340] | > 10 µM | > 10 µM | – |
| CC(C)CN(CC(C)C)C(=O)c1cnc(N2CCCC2)nc1-c1ccc(C#N)cc1 [compound 341] | > 10 µM | > 10 µM | – |
| O=C(c1cnc(NCc2ccc3c(c2)OCO3)nc1-c1ccc(-c2ccccc2)cc1)N1CCCCC1 [compound 342] | > 10 µM | > 10 µM | – |
| CCN(C)c1ncc(C(=O)N2CCC(C)CC2)c(-c2cccc(C)c2)n1 [compound 343] | > 10 µM | > 10 µM | – |
| CCCCNc1ncc(C(=O)N2CCC(C)CC2)c(-c2ccc(C#N)cc2)n1 [compound 344] | > 10 µM | > 10 µM | – |
| N#Cc1ccc(-c2nc(NCC3CCCCC3)ncc2C(=O)NCCc2cccc(F)c2)cc1 [compound 345] | > 10 µM | > 10 µM | – |
| N#Cc1ccc(-c2nc(N3CCCC3)ncc2C(=O)NCC2CCCCC2)cc1 [compound 346] | > 10 µM | > 10 µM | – |
| CCN(C)c1ncc(C(=O)N2CC(C)CC(C)C2)c(-c2ccc(C#N)cc2)n1 (centres unmarked) [compound 347] | > 10 µM | > 10 µM | – |
| COCCNc1ncc(C(=O)N(CC(C)C)CC(C)C)c(-c2cccc(C)c2)n1 [compound 348] | > 10 µM | > 10 µM | – |
| COCCCNC(=O)c1cnc(N2CCOCC2)nc1-c1ccc(C#N)cc1 [compound 349] | > 10 µM | > 10 µM | – |
| CCN(Cc1ccccc1)C(=O)c1cnc(N2CCOCC2)nc1-c1ccccc1F [compound 350] | > 10 µM | > 10 µM | – |
| O=C(c1cnc(NCC2CCCCC2)nc1-c1ccccc1F)N1CCOCC1 [compound 351] | > 10 µM | > 10 µM | – |

Now from value to compound:

| IC50 [1] | IC50 [2] | IC50 [3] | SMILES |
| --- | --- | --- | --- |
| < 2 µM | 2 to 10 µM | 2 to 10 µM | CC(C)N(Cc1ccccc1)C(=O)c1cnc(N2CCCCC2)nc1-c1ccccc1Cl [compound 1] |
| 2 to 10 µM | > 10 µM | > 10 µM | CC(C)(C)c1ccc(CN(C(=O)c2cnc(N3CCSCC3)nc2-c2ccccc2F)C2CC2)cc1 [compound 2] |
| > 10 µM | 2 to 10 µM | > 10 µM | CC(C)N(C(=O)c1cnc(N2CCCCC2)nc1-c1ccccc1Cl)c1cccc(C(C)(C)C)c1 [compound 3] |
| < 2 µM | 2 to 10 µM | 2 to 10 µM | CCCN(CC1CC1)c1ncc(C(=O)N(Cc2cccc(OC)c2)C(C)C)c(-c2ccccc2F)n1 [compound 4] |
| 2 to 10 µM | > 10 µM | > 10 µM | CC(C)N(Cc1cccc(O)c1)C(=O)c1cnc(N2CCOCC2)nc1-c1ccccc1F [compound 5] |
| 2 to 10 µM | 2 to 10 µM | > 10 µM | O=C(c1cnc(N2CCCCC2)nc1-c1ccccc1Cl)N(Cc1ccc2c(c1)CCO2)C1CC1 [compound 7] |
| 2 to 10 µM | 2 to 10 µM | > 10 µM | COc1cccc(N(C(=O)c2cnc(N3CCCCC3)nc2-c2ccccc2Cl)C2CCCC2)c1 [compound 8] |
| 2 to 10 µM | 2 to 10 µM | > 10 µM | Cc1nc(N2CCOCC2)nc(-c2ccccc2F)c1C(=O)N(Cc1ccc(F)cc1)C1CC1 [compound 9] |
| 2 to 10 µM | 2 to 10 µM | > 10 µM | Cc1cccc(CN(C(=O)c2c(C)nc(N3CCOCC3)nc2-c2ccccc2F)C2CC2)c1 [compound 10] |
| > 10 µM | > 10 µM | > 10 µM | CCNc1ncc(C(=O)N(Cc2ccccc2)C(C)C)c(-c2ccccc2F)n1 [compound 11] |
| 2 to 10 µM | > 10 µM | > 10 µM | Cc1nc(N2CCOCC2)nc(-c2ccccc2F)c1C(=O)N(Cc1ccccc1)C(C)C [compound 13] |
| 2 to 10 µM | > 10 µM | > 10 µM | O=C(c1cnc(N2CCCCC2)nc1-c1ccccc1F)N(Cc1cccc(-c2ccncc2)c1)C1CC1 [compound 14] |
| > 10 µM | > 10 µM | > 10 µM | COc1cccc(Nc2ncc(C(=O)N(Cc3ccccc3)C(C)C)c(-c3ccccc3F)n2)c1 [compound 15] |
| > 10 µM | > 10 µM | > 10 µM | CC(C)N(Cc1ccccc1)C(=O)c1cnc(N2CCOCC2)nc1-c1ccc(F)c(F)c1 [compound 16] |
| > 10 µM | > 10 µM | > 10 µM | CC(C)N(Cc1ccccc1)C(=O)c1cnc(N2CCOCC2)nc1-c1cccc(/C=C/C(=O)O)c1 [compound 17] |
| > 10 µM | > 10 µM | > 10 µM | CN1CCN(c2ncc(C(=O)N(Cc3ccncc3)C3CC3)c(-c3ccccc3F)n2)CC1 [compound 18] |
| > 10 µM | > 10 µM | > 10 µM | O=C(NC1CCCC1)c1cnc(N2CCOCC2)nc1-c1ccccc1F [compound 19] |
| < 2 µM | 2 to 10 µM | 2 to 10 µM | COc1cccc(CN(C(=O)c2cnc(N3CCCCC3)nc2-c2ccccc2F)C(C)C)c1 [compound 20, 4-(2-fluorophenyl)-N-isopropyl-N-(3-methoxybenzyl)-2-(piperidin-1-yl)pyrimidine-5-carboxamide] |
| < 2 µM | 2 to 10 µM | > 10 µM | COc1cccc(CN(C(=O)c2cnc(N3CCc4ccccc4C3)nc2-c2ccccc2F)C(C)C)c1 [compound 22] |
| < 2 µM | 2 to 10 µM | 2 to 10 µM | CC(C)N(Cc1ccc(C(C)(C)C)cc1)C(=O)c1cnc(N2CCOCC2)nc1-c1ccccc1F [compound 24] |
| 2 to 10 µM | 2 to 10 µM | > 10 µM | O=C(c1cnc(N2CCOCC2)nc1-c1ccccc1F)N(Cc1ccccc1)C1CCC1 [compound 26] |
| 2 to 10 µM | 2 to 10 µM | > 10 µM | COc1cccc(N(C(=O)c2cnc(N3CCCCC3)nc2-c2ccccc2Cl)C2CCC2)c1 [compound 27] |
| < 2 µM | 2 to 10 µM | 2 to 10 µM | CC(C)N(Cc1ccccc1)C(=O)c1cnc(NC2CC3CCC2C3)nc1-c1ccccc1F (centres unmarked) [compound 29] |
| 2 to 10 µM | > 10 µM | – | CCC1CCC(C)N(C(=O)c2cnc(NCCc3ccc(OC)cc3)nc2-c2ccc(C#N)cc2)C1 (centres unmarked) [compound 329] |
| 2 to 10 µM | > 10 µM | – | CC(=O)N1CCN(c2ncc(C(=O)N3CCC(C)CC3)c(-c3ccc(-c4ccccc4)cc3)n2)CC1 [compound 334] |
